Reference: US12702671B2, “Calcineurin inhibitors of the setron family for the treatment of hearing loss” (SENSORION, priority 2015, dated 2026)
Structures can show the parent of a compound that is named as a salt.

Test system: calcineurin
Experiment: Calcineurin phosphatase activity in cerebellar granule neurons after 4 DIV (malachite green colorimetric assay, Test A)
Type: cell-based, Wistar rat
Description: According to Test A, phosphatase calcineurin activity is assessed in cerebellar granule neurons (CGNs) using a colorimetric assay kit based on quantification of the green complex formed between malachite green, molybdate and free phosphate released. CGNs are detached from plates, for example by scraping, rinsed in ice-cold tris buffer solution (TBS) and counted. About 10 million cells are lysed in 1 ml of the provided lysis buffer and centrifuged at 150,000×g at 4° C. for 45 min, and the supernatant may be stored at −70° C. until analysis. Prior to calcineurin activity assay, free phosphate and nucleotides are removed from cellular extract by gel filtration. To ensure the complete removal of phosphate, malachite green reagent may be added, which will turn the color green in presence of phosphate. A specific calcineurin substrate is added to phosphate-free cellular extracts and after appropriate incubation period, malachite green reagent is applied. The rapid green color formation from the reaction is measured, for example on a spectrophotometer. The developed color is proportional to the calcineurin phosphatase activity of samples. Absorbance values, read at 620 nm, may thus be transformed to percentage calcineurin activity relative to K25 control treatment (100%). Cerebellar granule cells were dissociated from the cerebellae of 7-day-old Wistar rat pups as described (Kramer et al. 2003, Mol Cell Neurosci 23:325-330). Briefly, the cerebellae were removed, rinsed in HBSS-BSA, minced, digested with 0.025% trypsin and incubated at 37° C. for 15 min. To stop the digestion, DMEM containing 10% fetal calf serum was added; then a single cell suspension was obtained through pipetting up and down the sedimented tissue. Following centrifugation, cells were counted using trypan blue exclusion test in a Burker chamber. This method is based on the ability of viable cells to exclude trypan blue due to their intact cell membranes, leaving them unstained while nonviable cells take up the dye. Cells at 3.2×10^5/cm^2 were seeded in DMEM Hepes modification supplemented with 10% fetal calf serum, 100 μg/ml pyruvate, and 100 μg/ml gentamicin on Polystyrene 12-well tissue culture plates (CELLSTAR) coated with poly-L-lysine. After 24 h, 10 μM cytosine arabinofuranoside was added to inhibit the growth of non-neuronal cells. All pharmacological interventions begun at this time in the culture medium containing 25 mM KCl (K25), which caused depolarization of granule cells and consequently activated gene expression machinery. Moreover, the viability of granule neurons was higher in this milieu and therefore provides the possibility to maintain cells for several days. Indeed, 25 mM KCl is required in the medium for CGN cultures to maintain adequate calcineurin activity and cell maturation and depolarization (Kramer et al., 2003, Mol Cell Neurosci 23:325-330; Vallano et al. 2006, Neuropharmacology 50: 651-660). Cultures received simple medium (K25 control) or medium containing a setron compound in HCl salt form (Tocris Bioscience, Bristol, UK) at concentrations of 10 nM, 100 nM or 1000 nM for 4 days in vitro (DIV). Phosphatase calcineurin activity was assessed in CGNs using a colorimetric assay kit based on quantification of the green complex formed between malachite green, molybdate and free phosphate released. CGNs were detached from plates by scraping, rinsed in ice-cold tris buffer solution (TBS) and counted. About 10 million cells are lysed in 1 ml of the provided lysis buffer and centrifuged at 150,000×g at 4° C. for 45 min, and the supernatant was stored at −70° C. until analysis. Prior to calcineurin activity assay, free phosphate and nucleotides were removed from cellular extract by gel filtration. To ensure the complete removal of phosphate, malachite green reagent was added, which will turn the color green in presence of phosphate. […]

Structure (SMILES): CN1C(=O)COc2c(C(=O)NC3CN4CCC3CC4)cc(Cl)cc21 (stereo not drawn) [azasetron HCl, N-(1-azabicyclo[2.2.2]octan-8-yl)-6-chloro-4-methyl-3-oxo-1,4-benzoxazine-8-carboxamide]
- effect on calcineurin phosphatase activity (CGNs in K25 medium, 10, 100 or 1000 nM for 4 DIV, relative to K25 control (100%)): significantly inhibited
- change of calcineurin inhibition with increasing concentration (CGNs, 4 DIV, 10-1000 nM): increased to different degree with increasing concentrations
- concentrations at which calcineurin inhibition was significant (CGNs, 4 DIV, tested at 10, 100, 1000 nM, p<=0.05 vs K25 control): 1000 nM
